From US9695155B2, “Herbicidal substituted pyrimidinyloxy benzene compounds” (E. I. DU PONT DE NEMOURS AND COMPANY, priority 2013, dated 2017)

Assays:
giant foxtail = assay: Test C postemergence; assay type: in vivo, Setaria faberii; details: for Plant response rating, Foxtail, Giant / Foxtail, Giant plant response rating: scale 0 to 100 (0 no effect, 100 complete control); for Foxtail, Giant plant response rating: 16 g ai/ha
Outline: (§1)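 Injury was assessed visually against controls 13 to 15 days after application, with 0 meaning no effect and 100 full control; missing entries are shown as a dash. Preemergence sprays hit seeded loam–sand soil, postemergence sprays hit 1- to 4-leaf plants.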

sedge, umbrella = assay: Test B flooded paddy test; assay type: in vivo, Cyperus difformis; details: Flood, 250 g ai/ha; 0 to 100 scale where 0 is no effect and 100 is complete control
Outline: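 Scores from 0 (no effect) to 100 (complete control) are visual comparisons with controls, taken 13 to 15 days after compound was applied into floodwater 3 cm deep around 2-leaf plants.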

oilseed rape = assay: Test C postemergence; assay type: in vivo, Brassica napus; details: for Plant response rating, Oilseed Rape: scale 0 to 100 (0 no effect, 100 complete control)
Outline: as §1

soybean = assay: Test C postemergence; assay type: in vivo, Glycine max; details: for Plant response rating, Soybean: scale 0 to 100 (0 no effect, 100 complete control)
Outline: as §1

johnsongrass = assay: Test C postemergence; assay type: in vivo, Sorghum halepense; details: for Plant response rating, Johnsongrass / Johnsongrass plant response rating: scale 0 to 100 (0 no effect, 100 complete control); for Johnsongrass plant response rating: 16 g ai/ha
Outline: as §1

velvetleaf = assay: Test C postemergence; assay type: in vivo, Abutilon theophrasti; details: for Plant response rating, Velvetleaf: scale 0 to 100 (0 no effect, 100 complete control)
Outline: as §1

galium = assay: Test C preemergence; assay type: in vivo, Galium aparine; details: for Galium plant response rating: preemergence; for Plant response rating, Galium: Preemergence, 31 g ai/ha, scale 0 to 100, 0 no effect, 100 complete control
Outline: as §1

morningglory = assay: Test A preemergence; assay type: in vivo, Ipomoea spp.; details: for Plant response rating, Morningglory: 125 g ai/ha, 0 to 100 scale where 0 is no effect and 100 is complete control; for Morningglory plant response rating: 500 g ai/ha, 0 to 100 scale, 0 no effect, 100 complete control, approx. 10 days
Outline: (§2)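 Pre- and postemergence greenhouse screen. Soil: loam + sand. Spray carrier: solvent mixture, non-phytotoxic, with surfactant. Post timing at 1–2 leaves, height 2–10 cm. Readout: visual injury on a 0–100 scale roughly 10 days after application, untreated plants as reference.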

pigweed [1] = assay: Test A postemergence; assay type: in vivo, Amaranthus retroflexus; details: 0 to 100 scale where 0 is no effect and 100 is complete control
Outline: as §2

Italian ryegrass = assay: Test C preemergence; assay type: in vivo, Lolium multiflorum; details: for Ryegrass, Italian plant response rating: preemergence; for Plant response rating, Ryegrass, Italian: Preemergence, 31 g ai/ha, scale 0 to 100, 0 no effect, 100 complete control
Outline: as §1

large (Lg) crabgrass = assay: Test C postemergence; assay type: in vivo, Digitaria sanguinalis; details: for Plant response rating, Crabgrass, Large / Crabgrass, Large plant response rating: scale 0 to 100 (0 no effect, 100 complete control); for Crabgrass, Large plant response rating: 16 g ai/ha
Outline: as §1

pigweed [2] = assay: Test A preemergence; assay type: in vivo, Amaranthus retroflexus; details: for Plant response rating, Pigweed: 125 g ai/ha, 0 to 100 scale where 0 is no effect and 100 is complete control; for Pigweed plant response rating: 500 g ai/ha, 0 to 100 scale, 0 no effect, 100 complete control, approx. 10 days
Outline: as §2

wheat [3] = assay: Test A preemergence; assay type: in vivo, Triticum aestivum; details: for Plant response rating, Wheat: 125 g ai/ha, 0 to 100 scale where 0 is no effect and 100 is complete control
Outline: as §2

yellow nutsedge = assay: Test C postemergence; assay type: in vivo, Cyperus esculentus; details: for Plant response rating, Nutsedge, Yellow: scale 0 to 100 (0 no effect, 100 complete control)
Outline: as §1

wheat [4] = assay: Test A postemergence; assay type: in vivo, Triticum aestivum; details: 0 to 100 scale where 0 is no effect and 100 is complete control
Outline: as §2

[5] = Postemergence, 31 g ai/ha, 13 to 15 days
[6] = 62 g ai/ha, scale 0 (no effect) to 100 (complete control)
[7] = 125 g ai/ha, scale 0 (no effect) to 100 (complete control)
[8] = 250 g ai/ha, scale 0 (no effect) to 100 (complete control)
[9] = postemergence, visual rating, 13 to 15 days
[10] = 16 g ai/ha, scale 0 to 100 (0 no effect, 100 complete control)
[11] = 125 g ai/ha, postemergence, visual rating

N#Cc1cccc(Oc2ncc(F)cn2)c1-n1cc(Cl)cn1 [Compound 73]
Plant response rating (0 to 100), Foxtail, Giant (giant foxtail; 125 g ai/ha, postemergence): 10 | Plant response rating (0 to 100), Foxtail, Giant (giant foxtail; 250 g ai/ha, postemergence): 30 | Plant response rating, Foxtail, Giant (giant foxtail; [5]): 0 | Plant response rating, Foxtail, Giant (giant foxtail; Postemergence, 62 g ai/ha): 5 | Plant response rating, Sedge, Umbrella (sedge, umbrella): 85 | Plant response rating (0 to 100), Oilseed Rape (oilseed rape; 125 g ai/ha, postemergence): 60 | Plant response rating (0 to 100), Oilseed Rape (oilseed rape; 250 g ai/ha, postemergence): 80 | Plant response rating, Oilseed Rape (oilseed rape; [5]): 10 | Plant response rating, Oilseed Rape (oilseed rape; Postemergence, 62 g ai/ha): 30 | Plant response rating (0 to 100), Soybean (soybean; 125 g ai/ha, postemergence): 80 | Plant response rating (0 to 100), Soybean (soybean; 250 g ai/ha, postemergence): 90 | Plant response rating, Soybean (soybean; [5]): 40 | Plant response rating, Soybean (soybean; Postemergence, 62 g ai/ha): 70 | Plant response rating (0 to 100), Johnsongrass (johnsongrass; 125 g ai/ha, postemergence): 5 | Plant response rating (0 to 100), Johnsongrass (johnsongrass; 250 g ai/ha, postemergence): 25 | Plant response rating, Johnsongrass (johnsongrass; [5]): 0 | Plant response rating, Johnsongrass (johnsongrass; Postemergence, 62 g ai/ha): 5 | Plant response rating (0 to 100), Velvetleaf (velvetleaf; 125 g ai/ha, postemergence): 50 | Plant response rating (0 to 100), Velvetleaf (velvetleaf; 250 g ai/ha, postemergence): 70 | Plant response rating, Velvetleaf (velvetleaf; [5]): 30 | Plant response rating, Velvetleaf (velvetleaf; Postemergence, 62 g ai/ha): 30 | Galium plant response rating (galium; [6]): 90 | Galium plant response rating (galium; [7]): 90 | Galium plant response rating (galium; [8]): 95 | Plant response rating, Galium (galium): 85 | Plant response rating, Morningglory (morningglory): 90 | Morningglory plant response rating (morningglory): 100 | Plant response rating, Pigweed (pigweed [1]; 125 g ai/ha): 100 | Plant response rating, Pigweed (pigweed [1]; 500 g ai/ha): 100 | Ryegrass, Italian plant response rating (Italian ryegrass; [6]): 5 | Ryegrass, Italian plant response rating (Italian ryegrass; [7]): 55 | Ryegrass, Italian plant response rating (Italian ryegrass; [8]): 70 | Plant response rating, Ryegrass, Italian (Italian ryegrass): 0 | Plant response rating (0 to 100), Crabgrass, Large (large (Lg) crabgrass; 125 g ai/ha, postemergence): 10 | Plant response rating (0 to 100), Crabgrass, Large (large (Lg) crabgrass; 250 g ai/ha, postemergence): 20 | Plant response rating, Crabgrass, Large (large (Lg) crabgrass; [5]): 5 | Plant response rating, Crabgrass, Large (large (Lg) crabgrass; Postemergence, 62 g ai/ha): 10 | Plant response rating, Pigweed (pigweed [2]): 100 | Pigweed plant response rating (pigweed [2]): 100 | Plant response rating, Wheat (wheat [3]): 0 | Wheat plant response rating (wheat [3]; 500 g ai/ha, 0 to 100 scale, 0 no effect, 100 complete control, approx. 10 days): 80 | Plant response rating (0 to 100), Nutsedge, Yellow (yellow nutsedge; 125 g ai/ha, postemergence): 5 | Plant response rating (0 to 100), Nutsedge, Yellow (yellow nutsedge; 250 g ai/ha, postemergence): 5 | Plant response rating, Nutsedge, Yellow (yellow nutsedge; [5]): 0 | Plant response rating, Nutsedge, Yellow (yellow nutsedge; Postemergence, 62 g ai/ha): 0 | Plant response rating, Wheat (wheat [4]; 125 g ai/ha): 20 | Plant response rating, Wheat (wheat [4]; 500 g ai/ha): 50

CCOc1cnn(-c2c(C#N)cccc2Oc2ncc(Cl)cn2)c1 [Compound 92]
Foxtail, Giant plant response rating (giant foxtail; [9]): 5 | Plant response rating (0 to 100), Foxtail, Giant (giant foxtail; 125 g ai/ha, postemergence): 10 | Plant response rating, Foxtail, Giant (giant foxtail; [5]): 5 | Plant response rating, Foxtail, Giant (giant foxtail; Postemergence, 62 g ai/ha): 5 | Plant response rating, Sedge, Umbrella (sedge, umbrella): 90 | Plant response rating (0 to 100), Oilseed Rape (oilseed rape; 125 g ai/ha, postemergence): 70 | Plant response rating, Oilseed Rape (oilseed rape; [5]): 45 | Plant response rating, Oilseed Rape (oilseed rape; Postemergence, 62 g ai/ha): 60 | Plant response rating (0 to 100), Soybean (soybean; 125 g ai/ha, postemergence): 95 | Plant response rating, Soybean (soybean; [5]): 70 | Plant response rating, Soybean (soybean; Postemergence, 62 g ai/ha): 90 | Johnsongrass plant response rating (johnsongrass; [9]): 0 | Plant response rating (0 to 100), Johnsongrass (johnsongrass; 125 g ai/ha, postemergence): 5 | Plant response rating, Johnsongrass (johnsongrass; [5]): 0 | Plant response rating, Johnsongrass (johnsongrass; Postemergence, 62 g ai/ha): 5 | Plant response rating (0 to 100), Velvetleaf (velvetleaf; 125 g ai/ha, postemergence): 60 | Plant response rating, Velvetleaf (velvetleaf; [5]): 45 | Plant response rating, Velvetleaf (velvetleaf; Postemergence, 62 g ai/ha): 50 | Galium plant response rating (galium; [10]): 80 | Galium plant response rating (galium; [6]): 95 | Galium plant response rating (galium; [7]): 98 | Plant response rating, Galium (galium): 85 | Plant response rating, Morningglory (morningglory): 90 | Morningglory plant response rating (morningglory): 100 | Plant response rating, Pigweed (pigweed [1]; 125 g ai/ha): 100 | Plant response rating, Pigweed (pigweed [1]; 500 g ai/ha): 100 | Ryegrass, Italian plant response rating (Italian ryegrass; [10]): 0 | Ryegrass, Italian plant response rating (Italian ryegrass; [6]): 50 | Ryegrass, Italian plant response rating (Italian ryegrass; [7]): 85 | Plant response rating, Ryegrass, Italian (Italian ryegrass): 10 | Crabgrass, Large plant response rating (large (Lg) crabgrass; [9]): 5 | Plant response rating (0 to 100), Crabgrass, Large (large (Lg) crabgrass; 125 g ai/ha, postemergence): 10 | Plant response rating, Crabgrass, Large (large (Lg) crabgrass; [5]): 5 | Plant response rating, Crabgrass, Large (large (Lg) crabgrass; Postemergence, 62 g ai/ha): 5 | Plant response rating, Pigweed (pigweed [2]): 100 | Pigweed plant response rating (pigweed [2]): 100 | Plant response rating, Wheat (wheat [3]): 0 | Plant response rating (0 to 100), Nutsedge, Yellow (yellow nutsedge; 125 g ai/ha, postemergence): 5 | Plant response rating, Nutsedge, Yellow (yellow nutsedge; [5]): 5 | Plant response rating, Nutsedge, Yellow (yellow nutsedge; Postemergence, 62 g ai/ha): 5 | Plant response rating, Wheat (wheat [4]; 125 g ai/ha): 60 | Plant response rating, Wheat (wheat [4]; 500 g ai/ha): 70

N#Cc1cnn(-c2c(C#N)cccc2Oc2ncc(F)cn2)c1 [Compound 111]
Foxtail, Giant plant response rating (giant foxtail; [9]): 20 | Plant response rating, Foxtail, Giant (giant foxtail; [11]): 65 | Plant response rating, Foxtail, Giant (giant foxtail; Postemergence, 62 g ai/ha): 35 | Plant response rating, Sedge, Umbrella (sedge, umbrella): 75 | Plant response rating, Oilseed Rape (oilseed rape; [11]): 80 | Plant response rating, Oilseed Rape (oilseed rape; Postemergence, 62 g ai/ha): 60 | Plant response rating, Soybean (soybean; [11]): 95 | Plant response rating, Soybean (soybean; Postemergence, 62 g ai/ha): 80 | Johnsongrass plant response rating (johnsongrass; [9]): 5 | Plant response rating, Johnsongrass (johnsongrass; [11]): 10 | Plant response rating, Johnsongrass (johnsongrass; Postemergence, 62 g ai/ha): 5 | Plant response rating, Velvetleaf (velvetleaf; [11]): 80 | Plant response rating, Velvetleaf (velvetleaf; Postemergence, 62 g ai/ha): 75 | Galium plant response rating (galium; [10]): 90 | Galium plant response rating (galium; [6]): 100 | Galium plant response rating (galium; [7]): 75 | Plant response rating, Galium (galium): 100 | Plant response rating, Morningglory (morningglory): 90 | Morningglory plant response rating (morningglory): 100 | Plant response rating, Pigweed (pigweed [1]; 500 g ai/ha): 100 | Ryegrass, Italian plant response rating (Italian ryegrass; [10]): 0 | Ryegrass, Italian plant response rating (Italian ryegrass; [6]): 40 | Ryegrass, Italian plant response rating (Italian ryegrass; [7]): 60 | Plant response rating, Ryegrass, Italian (Italian ryegrass): 0 | Crabgrass, Large plant response rating (large (Lg) crabgrass; [9]): 5 | Plant response rating, Crabgrass, Large (large (Lg) crabgrass; [11]): 35 | Plant response rating, Crabgrass, Large (large (Lg) crabgrass; Postemergence, 62 g ai/ha): 10 | Plant response rating, Pigweed (pigweed [2]): 100 | Pigweed plant response rating (pigweed [2]): 100 | Plant response rating, Wheat (wheat [3]): 0 | Plant response rating, Nutsedge, Yellow (yellow nutsedge; [11]): 5 | Plant response rating, Nutsedge, Yellow (yellow nutsedge; Postemergence, 62 g ai/ha): 5 | Plant response rating, Wheat (wheat [4]; 500 g ai/ha): 80
